Laboratory results as given in patent US9790158B2, “Substituted tropolone derivatives and methods of use” (University of Connecticut, priority 2012, dated 2017).

Key:
[1] = molecular target: human recombinant HDAC4 (Homo sapiens, UniProt P56524); assay: fluorogenic HDAC inhibition assay, HDAC4; format: biochemical; conditions: IC50 converted to Ki with KM (Cheng and Prusoff); read-out: Ki HDAC-4
[2] = system: HuT-78 cells; assay: cell-based cytotoxicity assay (Cell Titer 96 Aqueous One), HuT-78; conditions: 72-h exposure, absorbance at 490 nm
Procedure: (§1) All cell lines were purchased from ATCC (Manassas, Va.). Jurkat cells were cultured in RPMI 1640 (ATCC) supplemented with 10% fetal bovine serum (FBS; Atlanta Biologicals, Lawrenceville, Ga.). HuT-78 cells were cultured in IMDM (ATCC) supplemented with 20% FBS (Atlanta Biologicals). HT-29 and HCT116 were cultured in McCoy's media (Life Technologies, Carlsbad Calif.) supplemented with 10% FBS (Atlanta Biologicals), 1% non-essential amino acids (Mediatech Inc., Manassas, Va.) and 1% penicillin/streptomycin (Mediatech Inc).
(§2) Confluent Jurkat and HuT-78 cells were seeded in triplicate at a density of 5×10^4 cells/well whereas HT-29 and HCT116 cells were seeded in triplicate at a density of 5×10^3 cells/well in 96-well plates. Cells were treated at varying concentrations (1 μM-100 μM) of either a tropolone analog or SAHA. DMSO served as a vehicle control. After a 72-h exposure, cytotoxicity was evaluated using the Cell Titer 96 Aqueous One kit (Promega, Madison, Wis.) according to the instructions of the manufacturer. Formazan content was determined by measuring the absorbance at 490 nm on an Infinite M200 microplate reader (Tecan Group Ltd., Switzerland) and analyzed via non-linear regression analysis (GraphPad Software, Inc.).

[3] = molecular target: human recombinant HDAC8 (Homo sapiens (Human), UniProt Q9BY41); assay: fluorogenic HDAC inhibition assay, HDAC8; format: biochemical; conditions: IC50 converted to Ki with KM (Cheng and Prusoff); read-out: Ki HDAC-8
human recombinant HDAC8, sequence (Q9BY41 whole entry): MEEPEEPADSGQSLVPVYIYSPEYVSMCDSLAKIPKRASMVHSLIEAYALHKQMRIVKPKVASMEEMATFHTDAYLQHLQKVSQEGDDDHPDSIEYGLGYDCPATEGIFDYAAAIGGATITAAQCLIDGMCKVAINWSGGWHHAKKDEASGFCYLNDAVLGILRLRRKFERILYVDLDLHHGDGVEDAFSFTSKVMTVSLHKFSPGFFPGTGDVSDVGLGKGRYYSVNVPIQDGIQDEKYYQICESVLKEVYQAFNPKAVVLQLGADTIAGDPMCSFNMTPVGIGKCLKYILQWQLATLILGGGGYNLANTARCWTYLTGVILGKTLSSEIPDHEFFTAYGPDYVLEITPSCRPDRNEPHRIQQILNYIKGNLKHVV
Procedure: Key enzyme kinetic parameters for one class I HDAC (HDAC8) and one class Ha HDAC (HDAC4) were determined using commercially available human recombinant HDAC enzymes (BPS Bioscience, San Diego, Calif.) and fluorogenic HDAC assay kits (BPS Bioscience). Kinetic parameters were determined by performing HDAC activity assays at varied concentrations of the HDAC substrate according to the manufacturer's protocol. Assay data were analyzed via non-linear regression (GraphPad Software, Inc., CA). Inhibition assays were used to determine the half maximal inhibitory concentration, IC50, for tropolone analogs in HDAC8 and […]. The potent hydroxamic acid HDAC inhibitor, Trichostatin A (TSA), provided in the assay kit, served as a control for the assays. IC50 values for the tropolone analogs were converted to inhibition constants, Ki, for each of the inhibitors using the KM value in accordance with the techniques previously described by Cheng and Prusoff.

[4] = system: Jurkat cells; assay: cell-based cytotoxicity assay (Cell Titer 96 Aqueous One), Jurkat; conditions: 72-h exposure, absorbance at 490 nm
Procedure: as §1, §2

human recombinant HDAC4, sequence (P56524 whole entry, looked up): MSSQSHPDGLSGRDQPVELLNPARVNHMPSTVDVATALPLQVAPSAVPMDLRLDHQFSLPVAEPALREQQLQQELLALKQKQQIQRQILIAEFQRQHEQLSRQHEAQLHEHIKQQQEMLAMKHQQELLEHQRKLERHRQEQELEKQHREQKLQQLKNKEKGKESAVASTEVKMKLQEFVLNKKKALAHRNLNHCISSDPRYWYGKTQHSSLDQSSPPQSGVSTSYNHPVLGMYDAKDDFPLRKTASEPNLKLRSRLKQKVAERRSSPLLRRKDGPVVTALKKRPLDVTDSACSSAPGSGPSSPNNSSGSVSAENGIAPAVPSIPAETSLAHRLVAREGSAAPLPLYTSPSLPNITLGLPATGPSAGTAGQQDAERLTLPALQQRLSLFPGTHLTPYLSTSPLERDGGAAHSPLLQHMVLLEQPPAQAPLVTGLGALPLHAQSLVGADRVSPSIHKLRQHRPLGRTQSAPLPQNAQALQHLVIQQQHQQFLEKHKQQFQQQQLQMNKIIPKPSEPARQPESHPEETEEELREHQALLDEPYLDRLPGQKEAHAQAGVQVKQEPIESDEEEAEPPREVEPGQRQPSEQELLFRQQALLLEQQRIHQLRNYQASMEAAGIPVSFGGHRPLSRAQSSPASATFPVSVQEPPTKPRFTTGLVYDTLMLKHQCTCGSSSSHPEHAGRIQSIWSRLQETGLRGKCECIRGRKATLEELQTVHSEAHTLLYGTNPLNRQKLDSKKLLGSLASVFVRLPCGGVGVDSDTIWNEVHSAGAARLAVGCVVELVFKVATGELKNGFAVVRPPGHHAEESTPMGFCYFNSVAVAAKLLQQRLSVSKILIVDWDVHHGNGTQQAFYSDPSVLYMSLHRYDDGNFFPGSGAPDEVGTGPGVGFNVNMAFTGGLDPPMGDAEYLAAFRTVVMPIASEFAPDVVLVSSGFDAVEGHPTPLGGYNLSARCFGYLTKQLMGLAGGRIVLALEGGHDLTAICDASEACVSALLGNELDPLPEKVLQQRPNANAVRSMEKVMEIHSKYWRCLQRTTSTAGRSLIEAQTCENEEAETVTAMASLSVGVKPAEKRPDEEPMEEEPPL

Structure (SMILES)	Ki [1]	IC50 ([2]; Homo sapiens, HuT78)	Ki [3]	IC50 ([4]; Homo sapiens, Jurkat)	IC50 [2]	IC50 [4]
O=c1c(O)ccccc1-c1ccccc1 [Example 1]	0.08 nM	7830 nM	0.17 nM	3330 nM		
O=c1c(O)ccccc1-c1ccc2ccccc2c1 [Example 2]	0.54 nM		7.63 nM			
COc1ccc(-c2ccccc(O)c2=O)cc1 [Example 3]	2.74 nM	2870 nM	0.14 nM	620 nM		
COc1ccc(OC)c(-c2ccccc(O)c2=O)c1 [Example 4]	184 nM	3050 nM	0.44 nM	750 nM		
COc1ccc(-c2ccccc(O)c2=O)c(OC)c1OC [Example 5]	59 nM	4740 nM	0.04 nM	1860 nM		
O=c1cccc(-c2ccccc2)cc1O [Example 6]	72.8 nM		19.4 nM		4140 nM	670 nM
COc1cccc(-c2cccc(O)c(=O)c2)c1 [Example 7]	1.7 nM		1.36 nM		8950 nM	4620 nM
COc1ccc(OC)c(-c2cccc(O)c(=O)c2)c1 [Example 8]	541 nM		1.42 nM		17100 nM	5880 nM
CC(C)c1cccc(O)c(=O)c1 [Example 9]	3.32 nM		105 nM		4990 nM	1100 nM
CC(C)(C)c1cccc(O)c(=O)c1 [Example 10]	489 nM		2.69 nM		13100 nM	4450 nM
CCC(C)c1cccc(O)c(=O)c1 (stereo not shown) [Example 11]	94.5 nM		10.1 nM		3250 nM	590 nM
O=c1cc(C2CCCC2)cccc1O [Example 12]	6.64 nM		23.3 nM		11400 nM	6300 nM
